Laboratory results reported in PubChem BioAssay (NCI).
“And” between values parts separate entries of the source, which are not always exact repeats. Identical values can stand only once.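 Five concentrations, 48 hours, 96-well plates. The concentration for 50% growth inhibition is given as GI50. TGI denotes the concentration required for complete inhibition of growth.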

What was measured:
Assay in all cases: growth of human tumour cells (NCI), 48 h
786-0 renal = tested on: 786-0 renal
EKVX NSCLC = tested on: EKVX NSCLC
IGROV1 ovarian = tested on: IGROV1 ovarian
SK-MEL-5 melanoma = tested on: SK-MEL-5 melanoma
TK-10 renal = tested on: TK-10 renal
A498 renal = tested on: A498 renal
U251 CNS = tested on: U251 CNS

SMILES | TGI (786-0 renal) | TGI (EKVX NSCLC) | TGI (IGROV1 ovarian) | TGI (SK-MEL-5 melanoma) | TGI (TK-10 renal) | TGI (A498 renal) | TGI (U251 CNS) | GI50 (A498 renal) [µM] | GI50 (EKVX NSCLC) [µM] | GI50 (IGROV1 ovarian) [µM] | GI50 (TK-10 renal) [µM] | GI50 (U251 CNS) [µM] | GI50 (SK-MEL-5 melanoma) [µM]
CN(C)CC(/C(Cc1ccccc1)=N\NC(=O)c1ccncc1)c1ccccc1 (configuration not stated) | > 100 µM | 68.1 µM | > 100 µM | 46.2 µM | > 100 µM | – | – | – | – | – | – | – | –
N/N=C(\CC1OC(=O)c2ccccc21)c1ccco1 (configuration not stated) | 0.164 µM | > 100 µM | > 100 µM | > 100 µM | > 100 µM | > 100 µM | – | – | – | – | – | – | –
CC1(CO)OC1COCc1ccccc1 (configuration not stated) | > 100 µM | > 100 µM | > 100 µM | – | – | – | > 100 µM | – | – | – | – | – | –
CC1Cc2c(N)nc(NN)nc2NC1=O (configuration not stated) | > 100 µM | > 100 µM | > 100 µM | > 100 µM | > 100 µM | – | > 100 µM | – | – | – | – | – | –
CC(=O)OCSc1ncnc2c1ncn2CN1CCOCC1 | > 100 µM | > 100 µM | > 100 µM | > 100 µM | > 100 µM | > 100 µM | > 100 µM | – | – | – | – | – | –
O=C(O)c1c2c(c(C(=O)O)c3ccccc13)-c1ccccc1-2 | > 100 µM | > 100 µM | – | – | > 100 µM | > 100 µM | > 100 µM | – | – | – | – | – | –
COc1ccc(C2S/C(=C\c3cc(OC)c(OC)c(OC)c3)C(=O)N2NC(=O)Cc2ccccc2)cc1 (configuration not stated) | > 100 µM | – | > 100 µM | > 100 µM | > 100 µM | – | > 100 µM | – | – | – | – | – | –
COc1ccc(C(=O)C(c2ccc(OC)cc2)C2(O)C(=O)Nc3c(C)cc(Cl)cc32)cc1 (configuration not stated) | > 100 µM | > 100 µM | > 100 µM | – | > 100 µM | > 100 µM | > 100 µM | – | – | – | – | – | –
O=[N+]([O-])c1ccc(Sc2c3ccccc3nc3ccccc23)cc1 | > 100 µM | > 100 µM | > 100 µM | > 100 µM | – | – | > 100 µM | – | – | – | – | – | –
Cc1cccc(C)c1NC(=O)CCCC(=O)CC(=O)/C=C/c1ccccc1 | > 100 µM | – | > 100 µM | > 100 µM | > 100 µM | > 100 µM | > 100 µM | – | – | – | – | – | –
CCOC(=O)/C(=C\c1ccc(OCc2ccccc2)c(OC)c1)C(=O)c1ccccc1 | 37.7 µM | 66.2 µM | 64.6 µM | 31.9 µM | 61 µM | – | 31.1 µM | – | – | – | – | – | –
O=C(CNC(=O)OCc1ccccc1)Oc1ccccc1 | > 100 µM | > 100 µM | > 100 µM | > 100 µM | > 100 µM | > 100 µM | > 100 µM | – | – | – | – | – | –
CC(C)=CC(=O)Oc1ccc([N+](=O)[O-])cc1 | > 100 µM | > 100 µM | > 100 µM | > 100 µM | > 100 µM | > 100 µM | > 100 µM | – | – | – | – | – | –
CCOc1cc2c(cnc3c4cc(OC)c(OC)cc4ccc23)cc1OC | > 100 µM | > 100 µM | > 100 µM | > 100 µM | > 100 µM | > 100 µM | > 100 µM | – | – | – | – | – | –
COC1/C(=C\C(=O)OC(C)(C)C)c2ccccc2N1C(C)=O (configuration not stated) | > 100 µM | > 100 µM | > 100 µM | – | – | > 100 µM | > 100 µM | – | – | – | – | – | –
CC(=O)OCC1OC(OC2CC3C(C)(C)C(OC(C)=O)CC[C@]3(C)C3CCC45CC4(CC[C@H]5C(C)CC(O)[C@@H](O)C(C)(C)O)[C@]23C)C(O)C(O)C1O (some centres not stated) | 14.2 µM and 21.9 µM | 13.1 µM and 29.2 µM | 13.7 µM and 14.4 µM | 13.2 µM and 19.7 µM | 14 µM and 26.5 µM | 13.2 µM and 35.6 µM | 12.3 µM and 15.6 µM | 19.6 | 15.8 | 4.63 | 13.6 | 4.3 | –
N#CCc1ccc(C(C#N)/C(CCCC(=O)Nc2cccc([N+](=O)[O-])c2)=N\NC(=O)NN)cc1 (configuration not stated) | > 100 µM | > 100 µM | > 100 µM | > 100 µM | > 100 µM | > 100 µM | > 100 µM | – | – | – | – | – | –
COc1ccc2c([nH]c3cc(O)c(C)cc32)c1C=O | > 25 µM | – | > 25 µM | > 25 µM | > 25 µM | – | > 25 µM | – | – | – | – | – | –
CC(=O)NC1=C(Nc2ccc(C)cc2)C(=O)c2ccccc2C1=O | 39.3 µM | > 75 µM | 50.8 µM | 20.4 µM | > 75 µM | > 75 µM | > 75 µM | – | – | – | – | – | –
O=C1CCCCCCCCCCC(=O)C2CCOCCOCCOCCC1Cc1cccc(n1)C2 | > 100 µM | > 100 µM | > 100 µM | > 100 µM | > 100 µM | > 100 µM | > 100 µM | – | – | – | – | – | –
CCCCCCCCCCC(C)CCCCCCC(=O)OCC(COP(=O)([O-])OCC[N+](C)(C)C)OC(=O)CCCCCCC(C)CCCCCCCCCC (configuration not stated) | > 100 µM | > 100 µM | > 100 µM | > 100 µM | > 100 µM | > 100 µM | > 100 µM | – | – | – | – | – | –
COc1cc2c(c(OC)c1OC)-c1ccc(SC)c(=O)cc1[C@@H](NC(=O)c1ccc(OC(C)=O)cc1)CC2 | 12.9 µM | > 100 µM | > 100 µM | – | 33.4 µM | 0.0779 µM and 0.0202 µM | 0.0544 µM | – | – | – | 0.0113 | – | 0.0196
C1CNCCNCCNCCN1 | > 100 µM | > 100 µM | > 100 µM | > 100 µM | > 100 µM | > 100 µM | 81.5 µM | – | – | – | – | – | –
c1nc2cscc2c2cscc12 | > 100 µM | – | > 100 µM | – | > 100 µM | > 100 µM | > 100 µM | – | – | – | – | – | –
